Measurements as given in patent US5077292A, “(2-imidazolin-2-ylamino) tetrahydroquinoxalines and methods for using same” (priority 1989, dated 1991).

System: mean arterial blood pressure
Experiment: blood pressure effects (MAP) in renal test, intraduodenal administration
Format: in vivo, Sprague-Dawley rats
Conditions: test run 3 times
Procedure: The tetrahydroquinoxaline produced in Example 1 was tested for renal and blood pressure effects using the following method.
Young male (20-24 weeks old) Sprague-Dawley rats were used. Under ketamine (60 mg/kg b.wt. i.m.) and pentobarbital (i.p. to effect) anesthesia, medical grade plastic tubes were implanted into the abdominal aorta and vena cava via the femoral vessels. In addition, a Silastic-covered stainless steel cannula were sewn in the urinary bladder. After the surgery, the rats were housed individually and were allowed free access to food and water until the day of the experiment.
For about 7 to 10 days before surgery and during recovery, the rats were accustomed to a restraining cage by placement in the cage for 2 to 3 hours every 2nd and 3rd day. The cage was designed for renal clearance studies (a model G Restrainer sold by Braintree Scientific, Inc., Braintree, Mass.). The animals' adjustment to the cage was judged by the stability of blood pressure and heart rate.
For an experiment, a rat was placed in the restraining cage, and the arterial line was connected to a Statham pressure transducer and a Beckman Dynograph R61 to monitor the mean arterial blood pressure, hereinafter referred to as MAP. […] The volume of urine was measured gravimetrically. Body weight was recorded before and after the experiment. […]

## Brc1c(NC2=NCCN2)ccc2c1NCCN2 [Example 1, 5-Bromo-6-(2-imidazolin-2-ylamino)-1,2,3,4-tetrahydroquinoxaline]
0.3 mg/kg
  Increase in MAP: 2.5 mm Hg
1 mg/kg
  Increase in MAP: 8 mm Hg
